# Measurements as given in patent US8652769B2, “Methods for separating frozen-thawed spermatozoa into X-chromosome bearing and Y-chromosome bearing populations” (XY, LLC, priority 2000, dated 2014).
# Marks after values point to notes of the source that are not given here.
# System: oocytes inseminated with separated stained spermatozoa from frozen-thawed sperm
# Test: In-vitro fertilization: cleavage and development of oocytes inseminated with stained, flow-sorted frozen-thawed bull sperm
# Type: cell-based, bovine
# Description: As an example of an application of embodiments of the invention involving frozen bull sperm in IVF applications, sperm samples from two bulls were stained either at a concentration of 224 μM or 2,240 of Hoechst 33342 and the stained spermatozoa were then bulk sorted on a flow cytometer at 1000 sperm/sec into 2% egg yolk citrate. Spermatozoa were inseminated at 1×10^6/mL and embryos were cultured in the mSOF system described by Tervit H. R. et al., Successful Culture In-Vitro of Sheep and Cattle Ova, J. Reprod. Fertil., 30:493-497([…]), hereby incorporated by reference. Three replicates were carried out for bull 1 and one replicate for bull 2 (Table 1). With conventional procedures, blastocyst production with separated spermatozoa can be 70-90% of controls with spermatozoa that have not been separated.
# As can be understood, it can take much longer to stain frozen-thawed sperm so that they can be resolved during separation at the lower stain concentration than at 10×stain concentration. The differences observed in cleavage rates between the two stain concentrations most likely can be attributed to the extended incubation time at the lower stain level.
# [1] = Bull 1, 3 ejaculates, Hoechst 33342 conc. 224 μM, staining time required 190 min, 368 oocytes
# [2] = Bull 1, 3 ejaculates, Hoechst 33342 conc. 2240 μM, staining time required 60 min, 373 oocytes
# [3] = Bull 2, 1 ejaculate, Hoechst 33342 conc. 224 μM, staining time required 190 min, 86 oocytes
# [4] = Bull 2, 1 ejaculate, Hoechst 33342 conc. 2240 μM, staining time required 60 min, 81 oocytes
structure (smiles),measurement,setting,value
CCOc1ccc(-c2nc3ccc(-c4nc5ccc(N6CCN(C)CC6)cc5[nH]4)cc3[nH]2)cc1 [Hoechst 33342],% blastocysts/oocyte,[1],17%
same,% cleave,[1],44^a %
same,% blastocysts/oocyte,[2],23%
same,% cleave,[2],60^b %
same,% blastocysts/oocyte,[3],0^a %
same,% cleave,[3],23^a %
same,% blastocysts/oocyte,[4],16^b %
same,% cleave,[4],42^b %
same,effect of increased stain concentration on cleavage or embryonic development,stain concentration up to at least 2240 μM,does not appear to have a depressive effect
